# Legend:
# AML-12 cells [1] = assay: mPTP opening, CoCl2-calcein AM fluorescence-quenching assay, hypoxia/reoxygenation; assay type: cell-based, mouse; conditions: for prevention of mPTP opening (loss of calcein fluorescence): 1 μM, 4 h hypoxia, 1 h reoxygenation
# Experimental: We next evaluated the ability of compounds C105SR and C110SR to inhibit mPTP opening in cells. The hepatocyte cell line AML-12 was subjected to 4 h of hypoxia followed by 1 h of reoxygenation and mPTP opening was monitored using the CoCl2-calcein-acetoxymethyl ester (AM) fluorescence-quenching method.[19] Calcein-AM is a membrane permeable fluorophore which passively diffuses in all subcellular compartments including mitochondria. In the cell, the AM group of the fluorophore is cleaved by ubiquitous intracellular esterases, generating a hydrophilic product that is retained within the cell. The cells are then loaded with the divalent cobalt cation (Co^2+), which quenches calcein fluorescence in all subcellular compartments except the mitochondrial matrix, because the inner mitochondrial membrane is impermeable to cobalt. However, when mPTP is open, cobalt enters mitochondria and quenches mitochondrial calcein fluorescence. […]
# (§1) Hypoxia/reoxygenation (H/R) in vitro model. AML-12 mouse hepatocyte line was obtained from American Type Culture Collection (ATCC) and maintained in DMEM/F12 culture medium at 37°C with 5% CO2. HepaRG human hepatocyte line was obtained from American Type Culture Collection (ATCC) and maintained in William’S E culture medium at 37°C with 5% CO2.When indicated, cells were incubated in phosphate buffered saline at 37°C in a hypoxic chamber filled with 94% N2, 1% O2, 5% CO2 for 4 h to mimic ischemic conditions. Then, cells were transferred to a CO2 incubator at 37°C in regular DMEM/F12 culture medium for 1 or 2 h under normoxic conditions (74% N2, 21% O2, 5% CO2). SMCypIs or vehicle (DMSO) were added during the hypoxia period, during the reoxygenation period, or during both. CsA and ALV were used as positive controls for hepatic protection against H/R injury.
# Monitoring of mPTP opening. mPTP opening was monitored in AML-12 cells using the CoCl2-calcein AM fluorescence-quenching assay. Cells were loaded with 1 µM calcein-AM (green) for 20 min. Then, 1 mM CoCl2 was added and cells were incubated for another 10 min. Cells were washed and subjected to 4 h of hypoxia followed by 1 h of reoxygenation. Calcein fluorescence was measured using a spectrofluorimeter at excitation and emission wavelengths of 485 nm and 535 nm, respectively. Images were acquired using a standard inverted fluorescence microscope (Zeiss Axio, […]
# media during the entire H/R period. Images shown are representative images of 12-18 images. […]
# Optical density of purple formazan product was measured at 550 nm. […]
# AML-12 cells [2] = assay: Cell viability by MTT assay, hypoxia/reoxygenation; assay type: cell-based, mouse; conditions: 4 h hypoxia, 2 h reoxygenation; for cell viability (MTT): applied during hypoxia and reoxygenation
# Experimental: (§2) As expected, cells subjected to hypoxia/reoxygenation were characterised by greater LDH release and reduced cell viability as compared to untreated controls (Fig. 4A and 4B). […]
# Hypoxia/reoxygenation (H/R) in vitro model. […]
# as §1, with “Collection” for “Hypoxia/reoxygenation (H/R) in vitro model. AML-12 mouse hepatocyte line was obtained from American Type Culture Collection (ATCC) and maintained in DMEM/F12 culture medium at 37°C with 5% CO2. HepaRG human hepatocyte line was obtained from American Type Culture Collection”, “injury. […]” for “injury.”
# Cell viability assays. […]
# dimethylthiazol-2-yl)-2,5-diphenyltetrazolium bromide (MTT) assay, cells were incubated with a solution of MTT (0.5 mg/mL) for 2 h at 37°C. The medium was then removed and 50 µL DMSO was added to each well. Optical density of purple formazan product was measured at 550 nm. Cell viability was expressed as a percentage of the untreated control.
# CypD = CypD (Homo sapiens, UniProt P30405); assay: CypD PPIase activity, chymotrypsin-coupled assay; assay type: biochemical; conditions: for inhibition of CypD PPIase activity by diastereoisomers: 10 μM (Fig. 2A); for IC50: Table 2, enzyme assay
# Sequence of CypD (P30405 30-207): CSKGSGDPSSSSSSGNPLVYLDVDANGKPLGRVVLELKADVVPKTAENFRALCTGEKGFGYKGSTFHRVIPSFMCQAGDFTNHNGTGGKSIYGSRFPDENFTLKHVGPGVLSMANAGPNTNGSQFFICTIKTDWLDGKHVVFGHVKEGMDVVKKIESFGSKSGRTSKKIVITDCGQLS
# AML-12 cells [3] = assay: LDH release, hypoxia/reoxygenation; assay type: cell-based, mouse; conditions: for inhibition of LDH release / LDH release: 4 h hypoxia, 2 h reoxygenation; for LDH release: applied during hypoxia and reoxygenation
# Experimental: as §2
# as §1, with “injury. […]” for “injury.”
# Cell viability assays. Lactate dehydrogenase (LDH) release in culture medium was assessed using the commercially non-radioactive CytoTox-96 kit (Promega, Madison, Wisconsin) following the manufacturer’s instructions. Briefly, cell culture media were collected and the LDH activity was determined by measuring absorbance at 491 nm with a spectrometer (Multiskan skyHigh). For 3-(4,5-dimethylthiazol-2-yl)-2,5-diphenyltetrazolium bromide (MTT) assay, cells were incubated with a solution of MTT (0.5 mg/mL) for 2 h at 37°C. The medium was then removed and 50 µL DMSO was added to each well. Optical density of purple formazan product was measured at 550 nm. Cell viability was expressed as a percentage of the untreated control.
Structure (SMILES),prevention of mPTP opening (loss of calcein fluorescence) (AML-12 cells [1]),increase in cell viability (AML-12 cells [2]; 0.5 μM),cell viability (MTT) (AML-12 cells [2]),inhibition of CypD PPIase activity by diastereoisomers (CypD),IC50 (CypD) [nM],inhibition of LDH release (AML-12 cells [3]; 0.5 μM),LDH release (AML-12 cells [3]),inhibition of mPTP opening (AML-12 cells [1]; 0.5 μM),"viability at 0.5 µM (AML-12 cells [2]; Mus musculus, AML12, 0.5 μM, read-out: increase in cell viability) [%]",inhibition of cell death (AML-12 cells [3]; 0.5 μM)
"COc1ccc(Br)cc1[C@H](NC(=O)NCc1ccc(N)cc1)C(=O)N1CCC[C@@H]1c1cccc2ccsc12 [Compound C110SR, 1-(4-aminobenzyl)-3-((S)-2-((R)-2-(benzo[b]thiophen-7-yl)pyrrolidin-1-yl)-1-(5-bromo-2-methoxyphenyl)-2-oxoethyl)urea]",substantially prevented,not effective,increased cell viability,inhibited CypD PPIase activity,8 ± 2,not effective,reduced LDH release,–,–,–
"COc1ccc(Br)cc1[C@H](NC(=O)NCc1ccc2c(c1)CCCN2)C(=O)N1CCC[C@@H]1c1cccc2ccsc12 [Compound C105SR, 1-((S)-2-((R)-2-(benzo[b]thiophen-7-yl)pyrrolidin-1-yl)-1-(5-bromo-2-methoxyphenyl)-2-oxoethyl)-3-((1,2,3,4-tetrahydroquinolin-6-yl)methyl)urea]",substantially prevented,–,increased cell viability,inhibited CypD PPIase activity,5 ± 1,potent activity inhibiting LDH release,reduced LDH release,inhibited,~75,inhibited

# From article PMC10582583, “The novel cyclophilin inhibitor C105SR reduces hepatic ischaemia–reperfusion injury via mitoprotection” (JHEP Reports, 2023)
